This note sets out measurements from ChEMBL document CHEMBL3091433, “Structure-based design of substituted hexafluoroisopropanol-arylsulfonamides as modulators of RORc” (Bioorg Med Chem Lett, 2013).

Where only a bound is given, the exact number is not on record here.

The target in series [1] is T1, Nuclear receptor ROR-gamma (Homo sapiens, UniProt P51449).
T1 sequence (P51449 whole entry): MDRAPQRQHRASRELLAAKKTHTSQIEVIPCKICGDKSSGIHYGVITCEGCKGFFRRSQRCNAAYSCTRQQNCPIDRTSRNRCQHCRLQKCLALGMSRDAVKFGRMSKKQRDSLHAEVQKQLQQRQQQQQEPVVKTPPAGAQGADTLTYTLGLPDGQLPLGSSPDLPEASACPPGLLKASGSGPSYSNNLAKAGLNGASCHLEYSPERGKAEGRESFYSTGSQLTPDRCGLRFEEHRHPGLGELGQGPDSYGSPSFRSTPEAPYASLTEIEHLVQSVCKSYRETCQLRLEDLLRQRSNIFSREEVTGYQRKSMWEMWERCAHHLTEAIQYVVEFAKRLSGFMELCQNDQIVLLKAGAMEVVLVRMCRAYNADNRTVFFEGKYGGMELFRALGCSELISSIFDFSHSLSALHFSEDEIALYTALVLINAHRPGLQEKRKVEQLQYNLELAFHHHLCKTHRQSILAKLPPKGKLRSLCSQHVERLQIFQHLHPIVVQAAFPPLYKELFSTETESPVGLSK
Description: Displacement of [3H2]-25-hydroxycholesterol from N-terminal 6xHis-tagged human RORc ligand binding domain (241 to 486) expressed in bacterial expression system after 3 hrs by scintillation counting analysis

Series [2] deals with T2, Nuclear receptor ROR-alpha (Homo sapiens, UniProt P35398).
T2 sequence (P35398 whole entry): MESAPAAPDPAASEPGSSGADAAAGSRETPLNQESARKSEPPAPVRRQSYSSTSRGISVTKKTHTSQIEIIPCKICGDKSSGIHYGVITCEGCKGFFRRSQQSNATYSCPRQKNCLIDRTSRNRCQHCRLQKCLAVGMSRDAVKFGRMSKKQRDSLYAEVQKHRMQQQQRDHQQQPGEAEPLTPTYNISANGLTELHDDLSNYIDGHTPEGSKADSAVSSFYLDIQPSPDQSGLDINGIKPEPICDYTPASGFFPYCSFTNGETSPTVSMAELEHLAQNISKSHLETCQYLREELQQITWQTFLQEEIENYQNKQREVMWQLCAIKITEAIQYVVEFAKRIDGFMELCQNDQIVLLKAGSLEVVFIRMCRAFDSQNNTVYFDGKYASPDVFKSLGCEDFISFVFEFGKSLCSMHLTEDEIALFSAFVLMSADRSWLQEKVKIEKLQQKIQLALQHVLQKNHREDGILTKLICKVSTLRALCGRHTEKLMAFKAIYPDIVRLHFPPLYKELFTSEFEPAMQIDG
Put plainly: Inverse agonist activity at GAL4-fused human RORa expressed in HEK293T cells assessed as suppression of basal transcriptional activity after 20 hrs by dual-glo luciferase reporter gene assay. The series is classed as cell-based, HEK-293T. For orientation: In a reporter assay the amount or activity of a reporter protein is the signal.

The target in series [3] is T3, Nuclear receptor subfamily 1 group I member 2 (Homo sapiens, UniProt O75469).
T3 sequence (O75469 whole entry): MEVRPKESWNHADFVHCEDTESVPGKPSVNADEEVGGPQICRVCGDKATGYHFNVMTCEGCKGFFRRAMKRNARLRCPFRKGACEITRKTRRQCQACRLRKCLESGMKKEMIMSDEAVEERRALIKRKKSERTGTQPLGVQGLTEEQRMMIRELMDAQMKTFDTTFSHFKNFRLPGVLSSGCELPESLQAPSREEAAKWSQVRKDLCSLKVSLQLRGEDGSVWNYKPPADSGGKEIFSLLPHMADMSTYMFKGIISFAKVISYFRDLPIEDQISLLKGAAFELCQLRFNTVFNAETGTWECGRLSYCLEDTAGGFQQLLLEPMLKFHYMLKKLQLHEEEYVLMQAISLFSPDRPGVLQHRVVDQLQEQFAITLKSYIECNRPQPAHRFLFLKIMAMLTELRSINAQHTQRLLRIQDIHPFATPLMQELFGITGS
Put plainly: Agonist activity at GAL4-fused human PXR expressed in HEK293T cells assessed as activation of basal transcriptional activity after 20 hrs by dual-glo luciferase reporter gene assay. The series is classed as cell-based, HEK-293T.

Series [4] concerns the target T4, Oxysterols receptor LXR-alpha (Homo sapiens, UniProt Q13133).
T4 sequence (Q13133 whole entry): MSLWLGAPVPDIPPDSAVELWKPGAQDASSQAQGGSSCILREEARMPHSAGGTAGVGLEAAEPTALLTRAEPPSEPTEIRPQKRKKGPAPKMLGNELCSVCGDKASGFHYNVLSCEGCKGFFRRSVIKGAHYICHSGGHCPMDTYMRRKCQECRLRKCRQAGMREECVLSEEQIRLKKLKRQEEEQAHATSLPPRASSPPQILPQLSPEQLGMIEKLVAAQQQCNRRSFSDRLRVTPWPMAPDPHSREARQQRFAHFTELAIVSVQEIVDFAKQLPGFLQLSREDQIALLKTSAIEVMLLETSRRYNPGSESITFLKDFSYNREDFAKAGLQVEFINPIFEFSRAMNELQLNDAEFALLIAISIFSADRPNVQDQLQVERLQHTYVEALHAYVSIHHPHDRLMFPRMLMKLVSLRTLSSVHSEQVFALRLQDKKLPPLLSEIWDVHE
Description: Agonist activity at GAL4-fused human LXRalpha expressed in HEK293T cells assessed as activation of basal transcriptional activity after 20 hrs by dual-glo luciferase reporter gene assay

The next series has as its target T5, Bile acid receptor (Homo sapiens, UniProt Q96RI1).
T5 sequence (Q96RI1 whole entry): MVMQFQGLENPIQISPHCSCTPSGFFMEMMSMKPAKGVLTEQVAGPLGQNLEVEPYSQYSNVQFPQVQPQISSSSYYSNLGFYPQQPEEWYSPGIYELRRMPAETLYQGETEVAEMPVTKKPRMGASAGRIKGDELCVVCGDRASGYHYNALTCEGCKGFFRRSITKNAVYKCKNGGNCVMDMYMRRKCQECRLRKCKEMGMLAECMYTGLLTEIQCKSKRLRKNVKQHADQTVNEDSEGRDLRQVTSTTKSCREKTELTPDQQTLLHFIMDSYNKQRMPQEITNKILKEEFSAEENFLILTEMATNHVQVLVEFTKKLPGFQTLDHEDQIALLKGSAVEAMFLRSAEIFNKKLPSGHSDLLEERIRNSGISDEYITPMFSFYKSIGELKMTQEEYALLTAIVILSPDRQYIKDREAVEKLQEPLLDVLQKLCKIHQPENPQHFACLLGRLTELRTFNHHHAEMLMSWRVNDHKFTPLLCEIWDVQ
Put plainly: Agonist activity at GAL4-fused human FXR expressed in HEK293T cells assessed as activation of basal transcriptional activity after 20 hrs by dual-glo luciferase reporter gene assay. The series is classed as cell-based, HEK-293T.

The target of series [5] is T1, Nuclear receptor ROR-gamma. The source holds these as a separate data set.
Description: Inverse agonist activity at GAL4-fused human RORc expressed in HEK293T cells assessed as suppression of basal transcriptional activity after 20 hrs by dual-glo luciferase reporter gene assay
For another series, the target named is T6, PXR (NR1I2) (Homo sapiens, UniProt O75469).
T6 sequence (O75469 whole entry): T3 sequence (O75469 whole entry)
Put plainly: in vitro. As to conditions: HEK293T cells expressing GAL4-fused human PXR.

Description for PXR (NR1I2): Agonist activity at GAL4-fused human PXR expressed in HEK293T cells assessed as activation of basal transcriptional activity after 20 hrs by dual-glo luciferase reporter gene assay relative to apo-receptor

Compound `CCN(c1ccc(C(O)(C(F)(F)F)C(F)(F)F)cc1)S(=O)(=O)c1ccccc1` yielded an IC50 in series [1] of 245 nM. Moreover, the concentration giving a half-maximal response (EC50) in series [2] was 5000 nM; in series [3] it was 39 nM; in series [4], 3000 nM; on Bile acid receptor, 9000 nM; in series [5], 593 nM. The compound also came in with a fold induction at 20 h on PXR (NR1I2) of 24.

Consider `N#Cc1ccc(S(=O)(=O)N(CC(F)(F)F)c2ccc(C(O)(C(F)(F)F)C(F)(F)F)cc2)cc1`, for which half-maximal inhibition in series [1] (IC50) was put at 50 nM. Further, the EC50 in series [2] was 7000 nM; in series [3], 571 nM; in series [4] it was above 10000 nM; on Bile acid receptor, 3000 nM; in series [5] it was 192 nM. Also, on PXR (NR1I2), the fold induction at 20 h is 27.

In the case of `O=S(=O)(c1ccc(F)cc1)N(CC(F)(F)F)c1ccc(C(O)(C(F)(F)F)C(F)(F)F)cc1`, the IC50 in series [1] was 34 nM. Besides, the EC50 in series [2] was determined as 6000 nM; in series [3] it was 194 nM; in series [4] it was 719 nM; at Bile acid receptor, 1000 nM; in series [5] it was 89 nM. The compound further came in with a fold induction at 20 h on PXR (NR1I2) of 30.

As usually defined, the IC50 is the concentration that inhibits the measured activity by half. Low readings indicate greater potency, high ones weaker potency. The term EC50 denotes the concentration at which the effect is half-maximal. Broadly, the fold induction is the ratio of treated to control signal. High values mean a strong induction, low ones a weak induction.
